Results taken from PubChem BioAssay (NCI).
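1) Cells in 96-well plates. 2) Compound, 48 h, 5 concentrations. 3) Linear interpolation between surrounding doses. 4) Unreached endpoint = highest concentration. The concentration for 50% growth inhibition is given as GI50. TGI: concentration producing complete growth inhibition.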

Tests used:
Experiment in all cases: NCI-60 cell line screen, 48 h
[1] = test system: MALME-3M melanoma
[2] = test system: EKVX NSCLC
[3] = test system: RPMI-8226 leukemia
[4] = test system: KM12 colon
[5] = test system: SN12C renal
[6] = test system: SK-MEL-5 melanoma
[7] = test system: SK-OV-3 ovarian
[8] = test system: NCI-H226 lung
[9] = test system: NCI-H522 lung
[10] = test system: HCT-116 colon
[11] = test system: XF 498 CNS
[12] = test system: SK-MEL-2 melanoma
[13] = test system: HOP-92 NSCLC
[14] = test system: RXF 393 renal
[15] = test system: DLD-1 colon
[16] = test system: MOLT-4 leukemia
[17] = test system: SNB-75 CNS
[18] = test system: SW-620 colon
[19] = test system: OVCAR-4 ovarian
[20] = test system: HL-60(TB) leukemia
[21] = test system: ACHN renal
[22] = test system: U251 CNS
[23] = test system: IGROV1 ovarian
[24] = test system: M14 melanoma
[25] = test system: HCT-15 colon
[26] = test system: UACC-62 melanoma
[27] = test system: TK-10 renal
[28] = test system: DMS 114 small cell lung
[29] = test system: SK-MEL-28 melanoma
[30] = test system: A498 renal
[31] = test system: LOX IMVI melanoma
[32] = test system: SF-539 CNS
[33] = test system: A549 NSCLC
[34] = test system: NCI-H23 lung
[35] = test system: HCC-2998 colon
[36] = test system: DMS 273 small cell lung
[37] = test system: OVCAR-8 ovarian
[38] = test system: OVCAR-3 ovarian
[39] = test system: SR leukemia
[40] = test system: UACC-257 melanoma
[41] = test system: SF-268 CNS
[42] = test system: HOP-62 NSCLC
[43] = test system: OVCAR-5 ovarian
[44] = test system: KM20L2 colon
[45] = test system: M19-MEL melanoma
[46] = test system: NCI-H460 lung
[47] = test system: SF-295 CNS
[48] = test system: COLO 205 colon
[49] = test system: SNB-19 CNS
[50] = test system: HT29 colon
[51] = test system: SNB-78 CNS
[52] = test system: LXFL 529 NSCLC
[53] = test system: CCRF-CEM leukemia
[54] = test system: 786-0 renal
[55] = test system: K-562 leukemia
[56] = test system: CAKI-1 renal
[57] = test system: UO-31 renal

Structure (SMILES): NCCSCC(N)C(=O)O (stereo not given)
- GI50 [1]: > 497 µM
- TGI [1]: > 497 µM
- TGI [2]: > 497 µM
- GI50 [3]: > 497 µM
- TGI [3]: > 497 µM
- GI50 [4]: > 497 µM
- TGI [4]: > 497 µM
- TGI [5]: > 497 µM
- GI50 [6]: > 497 µM
- TGI [6]: > 497 µM
- TGI [7]: > 497 µM
- TGI [8]: > 497 µM
- GI50 [9]: > 497 µM
- TGI [9]: > 497 µM
- GI50 [10]: > 497 µM
- TGI [10]: > 497 µM
- TGI [11]: > 497 µM
- TGI [12]: > 497 µM
- TGI [13]: > 497 µM
- TGI [14]: > 497 µM
- TGI [15]: > 497 µM
- TGI [16]: > 497 µM
- GI50 [17]: 470 µM
- TGI [17]: > 497 µM
- GI50 [18]: > 497 µM
- TGI [18]: > 497 µM
- TGI [19]: > 497 µM
- TGI [20]: > 497 µM
- GI50 [21]: > 497 µM
- TGI [21]: > 497 µM
- TGI [22]: > 497 µM
- GI50 [23]: > 497 µM
- TGI [23]: > 497 µM
- TGI [24]: > 497 µM
- GI50 [25]: > 497 µM
- TGI [25]: > 497 µM
- TGI [26]: > 497 µM
- TGI [27]: > 497 µM
- TGI [28]: > 497 µM
- TGI [29]: > 497 µM
- TGI [30]: > 497 µM
- TGI [31]: > 497 µM
- TGI [32]: > 497 µM
- GI50 [33]: > 497 µM
- TGI [33]: > 497 µM
- TGI [34]: > 497 µM
- TGI [35]: > 497 µM
- TGI [36]: > 497 µM
- TGI [37]: > 497 µM
- GI50 [38]: > 497 µM
- TGI [38]: > 497 µM
- TGI [39]: > 497 µM
- TGI [40]: > 497 µM
- TGI [41]: > 497 µM
- TGI [42]: > 497 µM
- TGI [43]: > 497 µM
- TGI [44]: > 497 µM
- TGI [45]: > 497 µM
- GI50 [46]: > 497 µM
- TGI [46]: > 497 µM
- TGI [47]: > 497 µM
- GI50 [48]: > 497 µM
- TGI [48]: > 497 µM
- TGI [49]: > 497 µM
- GI50 [50]: > 497 µM
- TGI [50]: > 497 µM
- TGI [51]: > 497 µM
- TGI [52]: > 497 µM
- GI50 [53]: > 497 µM
- TGI [53]: > 497 µM

Structure (SMILES): C=CCN1C(=O)C(=O)N(CC=C)C(=O)C1=O
- TGI [1]: > 100 µM
- TGI [54]: > 100 µM
- TGI [2]: > 100 µM
- TGI [3]: > 100 µM
- TGI [4]: > 100 µM
- TGI [5]: > 100 µM
- TGI [6]: > 100 µM
- TGI [7]: > 100 µM
- TGI [8]: > 100 µM
- TGI [9]: > 100 µM
- TGI [10]: > 100 µM
- TGI [11]: > 100 µM
- TGI [13]: > 100 µM
- TGI [14]: > 100 µM
- TGI [15]: > 100 µM
- TGI [16]: > 100 µM
- TGI [17]: > 100 µM
- TGI [18]: > 100 µM
- TGI [19]: > 100 µM
- TGI [20]: > 100 µM
- TGI [22]: > 100 µM
- TGI [23]: > 100 µM
- TGI [24]: > 100 µM
- TGI [25]: > 100 µM
- TGI [55]: > 100 µM
- TGI [26]: > 100 µM
- TGI [27]: > 100 µM
- TGI [28]: > 100 µM
- TGI [30]: > 100 µM
- TGI [31]: > 100 µM
- TGI [32]: > 100 µM
- TGI [33]: > 100 µM
- TGI [34]: > 100 µM
- TGI [35]: > 100 µM
- TGI [36]: > 100 µM
- TGI [56]: > 100 µM
- TGI [37]: > 100 µM
- TGI [38]: > 100 µM
- TGI [39]: > 100 µM
- TGI [40]: > 100 µM
- TGI [41]: > 100 µM
- TGI [42]: > 100 µM
- TGI [43]: > 100 µM
- TGI [44]: > 100 µM
- TGI [45]: > 100 µM
- TGI [46]: > 100 µM
- TGI [47]: > 100 µM
- TGI [48]: > 100 µM
- TGI [49]: > 100 µM
- TGI [57]: > 100 µM
- TGI [50]: > 100 µM
- TGI [51]: > 100 µM
- TGI [52]: > 100 µM
- TGI [53]: > 100 µM

Structure (SMILES): Cn1cccc(C(=O)c2ccccc2)c1=O
- TGI [1]: > 100 µM
- TGI [54]: > 100 µM
- TGI [2]: > 100 µM
- TGI [3]: > 100 µM
- TGI [4]: > 100 µM
- TGI [5]: > 100 µM
- TGI [6]: > 100 µM
- TGI [7]: > 100 µM
- TGI [8]: > 100 µM
- TGI [9]: > 100 µM
- TGI [10]: > 100 µM
- TGI [11]: > 100 µM
- TGI [12]: > 100 µM
- TGI [13]: > 100 µM
- TGI [14]: > 100 µM
- TGI [15]: > 100 µM
- TGI [16]: > 100 µM
- TGI [17]: > 100 µM
- TGI [18]: > 100 µM
- TGI [19]: > 100 µM
- TGI [20]: > 100 µM
- TGI [21]: > 100 µM
- TGI [22]: > 100 µM
- TGI [23]: > 100 µM
- TGI [24]: > 100 µM
- TGI [25]: > 100 µM
- TGI [55]: > 100 µM
- TGI [26]: > 100 µM
- TGI [27]: > 100 µM
- TGI [28]: > 100 µM
- TGI [29]: > 100 µM
- TGI [31]: > 100 µM
- TGI [32]: > 100 µM
- TGI [33]: > 100 µM
- TGI [34]: > 100 µM
- TGI [35]: > 100 µM
- TGI [36]: > 100 µM
- TGI [56]: > 100 µM
- TGI [37]: > 100 µM
- TGI [38]: > 100 µM
- TGI [39]: > 100 µM
- TGI [40]: > 100 µM
- TGI [41]: > 100 µM
- TGI [42]: > 100 µM
- TGI [43]: > 100 µM
- TGI [44]: > 100 µM
- TGI [45]: > 100 µM
- TGI [46]: > 100 µM
- TGI [47]: > 100 µM
- TGI [48]: > 100 µM
- TGI [49]: > 100 µM
- TGI [57]: > 100 µM
- TGI [50]: > 100 µM
- TGI [51]: > 100 µM
- TGI [52]: > 100 µM
- TGI [53]: > 100 µM
